Reference: the supplement of paper PMC10307832

Tests used:
Test in all cases: relative viability (nuclei count vs DMSO), 5 days (fraction); higher = more cells survive
[1] = compound: CC1=CN=C(N=C1C2=CNC(=C2)C(=O)N[C@H](CO)C3=CC(=CC=C3)Cl)NC4=C(C=C(C=C4)F)Cl [VX-11e] + O=C(c1cc(Cc2n[nH]c(=O)c3ccccc23)ccc1F)N1CCN(C(=O)C2CC2)CC1 [Olaparib] (partner 8 µM)
Procedure, shortened: (§1)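 The day after seeding in 1536-well plates, lung cancer cell lines were treated by pin tool with a single drug, or with a fixed anchor-drug dose together with five library-drug doses (not always all listed) in √10 steps. After 5 days, a combined fix-and-stain solution (final 0.05% Triton X-100, 1% formaldehyde, 1 ug/ml Hoechst) was added. Nuclei counted on 4× images gave relative viability as treated counts over vehicle counts, reported as the median of duplicate plates.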

[2] = compound: CC1=CN=C(N=C1C2=CNC(=C2)C(=O)N[C@H](CO)C3=CC(=CC=C3)Cl)NC4=C(C=C(C=C4)F)Cl [VX-11e] + Nc1nc2[nH]cc(CCc3ccc(C(=O)N[C@@H](CCC(=O)O)C(=O)O)cc3)c2c(=O)[nH]1 [Pemetrexed] (partner 0.2 µM)
Procedure, shortened: as §1

[3] = compound: CC1=CN=C(N=C1C2=CNC(=C2)C(=O)N[C@H](CO)C3=CC(=CC=C3)Cl)NC4=C(C=C(C=C4)F)Cl [VX-11e] + O=C(CCCCCCC(=O)Nc1ccccc1)NO [Vorinostat] (partner 1 µM)
Procedure, shortened: as §1

[4] = compound: CC1=CN=C(N=C1C2=CNC(=C2)C(=O)N[C@H](CO)C3=CC(=CC=C3)Cl)NC4=C(C=C(C=C4)F)Cl [VX-11e] + C[C@]1(O)C[C@@H](c2nc(-c3ccc4ccc(-c5ccccc5)nc4c3)c3c(N)nccn32)C1 [Linsitinib] (partner 1 µM)
Procedure, shortened: as §1

Cell Line | relative viability ([1]; first compound 0.04 µM) | relative viability ([1]; first compound 0.1265 µM) | relative viability ([1]; first compound 0.4 µM) | relative viability ([1]; first compound 1.265 µM) | relative viability ([1]; first compound 4 µM) | relative viability ([2]; first compound 0.04 µM) | relative viability ([2]; first compound 0.1265 µM) | relative viability ([2]; first compound 0.4 µM) | relative viability ([2]; first compound 1.265 µM) | relative viability ([2]; first compound 4 µM) | relative viability ([3]; first compound 0.04 µM) | relative viability ([3]; first compound 0.1265 µM) | relative viability ([3]; first compound 0.4 µM) | relative viability ([3]; first compound 1.265 µM) | relative viability ([3]; first compound 4 µM) | relative viability ([4]; first compound 0.04 µM) | relative viability ([4]; first compound 0.1265 µM) | relative viability ([4]; first compound 0.4 µM) | relative viability ([4]; first compound 1.265 µM) | relative viability ([4]; first compound 4 µM)
201T | 0.846 | 0.809 | 0.832 | 0.792 | 0.773 | 0.347 | 0.344 | 0.317 | 0.249 | 0.31 | 0.975 | 0.988 | 0.885 | 0.65 | 0.855 | 1.01 | 1.02 | 1 | 0.867 | 0.966
A-427 | 0.778 | 0.778 | 0.816 | 0.7 | 0.509 | 1.02 | 0.983 | 1.1 | 0.966 | 0.606 | 0.868 | 0.928 | 1.01 | 0.89 | 0.504 | 1.14 | 1.08 | 1.01 | 0.888 | 0.466
ABC-1 | 1.22 | – | 0.667 | 0.771 | 0.926 | – | – | – | – | – | 0.934 | – | 1.22 | 0.986 | 1.15 | 0.814 | 0.792 | 0.597 | 0.531 | 0.538
BEN | 1.04 | 0.935 | 1.11 | 0.904 | 0.994 | 0.491 | 0.69 | 0.875 | 0.582 | 0.629 | 0.572 | 0.564 | 0.55 | 0.525 | 0.504 | 1.04 | 0.701 | 0.923 | 0.54 | 0.783
CAL-12T | 0.802 | 0.718 | 0.732 | 0.618 | 0.316 | 1.28 | 1.36 | 1.19 | 1.02 | 0.438 | 0.634 | 0.724 | 0.649 | 0.84 | 0.285 | 0.873 | 0.816 | 0.765 | 0.465 | 0.282
COR-L23 | 0.445 | 0.463 | 0.486 | 0.491 | 0.207 | 0.236 | 0.196 | 0.213 | 0.217 | 0.179 | 0.31 | 0.436 | 0.592 | 0.41 | 0.262 | 1.04 | 0.905 | 0.816 | 0.508 | 0.248
COR-L 105 | 0.666 | 0.694 | 0.708 | 0.839 | 0.396 | 1.11 | 0.905 | 0.921 | 0.93 | 0.527 | 0.756 | 0.857 | 0.731 | 0.741 | 0.418 | 1.04 | 0.946 | 0.568 | 0.571 | 0.267
Calu-6 | 0.672 | 0.579 | 0.562 | 0.31 | 0.108 | – | – | – | – | – | – | – | – | – | – | 1.08 | 0.926 | 0.935 | 0.179 | 0.115
ChaGo-K-1 | 0.451 | 0.473 | 0.416 | 0.43 | 0.378 | 0.268 | 0.261 | 0.248 | 0.25 | 0.234 | 0.754 | 0.699 | 0.717 | 0.656 | 0.636 | – | – | – | – | –
EBC-1 | 0.749 | 0.72 | 0.707 | 0.66 | 0.192 | – | – | – | – | – | – | – | – | – | – | 0.954 | 0.872 | 0.494 | 0.371 | 0.19
EKVX | 0.836 | 0.834 | 0.713 | 0.94 | 0.451 | 0.314 | 0.444 | 0.33 | 0.383 | 0.225 | 0.751 | 0.687 | 0.718 | 0.728 | 0.382 | 1.01 | 0.971 | 1.05 | 0.87 | 0.559
EMC-BAC-2 | 0.529 | 0.492 | 0.468 | 0.711 | 0.636 | 0.473 | 0.423 | 0.631 | 0.511 | 0.549 | 0.404 | 0.45 | 1.07 | 0.511 | 0.315 | 0.831 | 0.74 | 0.743 | 0.712 | 0.602
EPLC-272H | 0.771 | 0.833 | 0.588 | 0.38 | 0.219 | 0.334 | 0.39 | 0.408 | 0.305 | 0.253 | 0.311 | 0.381 | 0.477 | 0.23 | 0.275 | 0.923 | 1.04 | 0.927 | 0.934 | 0.562
H3255 | 0.582 | 0.544 | 0.496 | 0.552 | 0.497 | 0.478 | 0.565 | 0.523 | 0.513 | 0.47 | 0.828 | 0.765 | 0.776 | 0.79 | 0.708 | 1.01 | 0.815 | 0.971 | 0.956 | 0.879
HARA | 0.893 | 0.705 | 0.939 | 0.295 | 0.525 | 0.253 | 0.236 | 0.26 | 0.186 | 0.131 | 0.618 | 0.455 | 0.535 | 0.392 | 0.257 | 1.01 | 0.9 | 1.02 | 1.04 | 0.417
HCC-15 | 0.869 | 0.794 | – | 0.541 | 0.398 | 0.227 | 0.232 | 0.22 | 0.197 | 0.15 | 0.96 | 0.752 | – | 0.534 | 0.26 | 0.868 | 0.815 | 0.746 | 0.497 | 0.217
HCC-44 | 1.02 | 0.893 | 0.897 | 1.05 | 0.93 | 0.766 | 0.614 | 0.63 | 0.656 | 0.793 | 1.15 | 1.15 | 1.12 | 1.03 | 0.831 | 0.697 | 0.619 | 0.686 | 0.657 | 0.523
